We go through seven substances from patent publication US6281201A, “Base-modified derivatives of 2',5'-oligoadenylate and antiviral uses thereof” (Temple University- of the Commonwealth System of Higher …, priority 1999, dated 2001).

Assay [1] concerns recombinant human GST-RNase L. In words: Activation of recombinant human GST-RNase L (hydrolysis of poly(U)-3'-[^32 P]pCp). It is filed as biochemical. The conditions noted are these: 300 μM; mean of duplicates, variance did not exceed 5-10%. The protocol:
(§1) Three studies were performed to determine the antiviral activity of the (2'-5')oligonucleotide derivatives of the present invention: (i) inhibition of HIV-1-replication, (ii) inhibition of HIV-1 reverse-transcriptase (RT) activity, and (iii) activation of recombinant human GST-RNase L. All compounds were tested at a concentration of 300 μM.
Human recombinant RNase L was expressed in E. coli(DH5α) as a fusion protein of glutathione-S-transferase (GST). Activation of human recombinant GST-RNase L was measured as the percent of poly(U)[^32 P]pCp hydrolyzed in the presence of authentic 2',5'-oligoadenylate trimer core or trimer core analog of the invention as described by Sobol et al., J. Biol. Chem. 1995, 270, 5963. The data is shown in Table 1 as the mean of duplicate determinations.
^d The activation of recombinant human RNase L was measured as the
percent hydrolysis of poly(U)-3'-[^32 P]pCp in the presence of the
trimers 22-29. The mean of duplicate determinations is shown; variance did

The subject of another assay is HIV-1. In words: Inhibition of HIV-1 replication: infected centers assay, HIV-1-induced syncytia formation. It counts as cell-based, HIV-1 strain IIIB. The note with it: 300 μM (table footnote: 300 μm [sic]); PBL treated 2 h, HIV-1 IIIB MOI approx. 0.1; Sup T1 cells, read at 72 hours; mean of triplicates, variance did not exceed 5-10%. How it is done: as §1
The infected centers assay as described by Henderson et al., Virology 1991, 182, 186, was used to measure the ability of the trimer core compounds of the invention to inhibit HIV-1 induced syncytia formation, an indicator of HIV-1 replication in T cells. Freshly isolated peripheral blood lymphocytes (PBL) were treated with 2-5A trimer or derivatives for 2 hours and infected with HIV-1 strain IIIB at a multiplicity of infection of approximately 0.1. The infected PBL were maintained in RPMI-1640 medium supplemented with 10% (v/v) heat-inactivated fetal calf serum at 37° C. in a humidified 5% CO2 in air atmosphere. After 48 hours, the cells were washed twice in Hank's balanced salt solution, serially diluted and seeded into multiple wells of a 96-well microtiter plate. Immediately, 2×10^5 exponentially growing Sup T1 cells were added to each well; Sup T1 cells readily form a syncytium with a cell which is productively infected with HIV-1. The wells were examined daily for the presence of syncytia, using a tissue culture microscope. The first signs of syncytia formation can be seen in 12 hours, with some complete syncytia developing by 24 hours. Final results were read at 72 hours. Each syncytium was counted as a single infected cell. The number of syncytia per seeded cell is determined and expressed as an infected center per infected cell. The number of syncytia per 10^4 cells was 121±16 for the control Sup T1 cells.
^b Inhibition of HIV-1 replication was determined by HIV-1-induced
syncytia formation (fold reduction) for each compound. The number of
syncytia/10^4 cells was 121 ± 16 for the control Sup T1 cells. The

For assay [2], the system named is HIV-1 reverse-transcriptase. In words: Inhibition of HIV-1 reverse-transcriptase (RT) activity in culture supernatant of infected Sup T1 cells. It counts as cell-based. The note with it: 300 μM, 6 h pretreatment of Sup T1 cells; supernatant 96 h post-infection; mean of duplicates, variance did not exceed 5-10%. The protocol: as §1
Sup T1 cells were treated with trimer core compound at 300 μM for 6 hours and then infected with HIV-1 at a multiplicity of infection of approximately 0.1. At 96 hours post-infection, culture supernatant was removed and HIV-1 RT activity was assayed […] as described by Henderson et al., Virology 1991, 182, 186. Briefly in this method, 25 μl of culture supernatant was added to a 50 μl cocktail containing 50 mM Tris (pH 8.0), 20 mM dithiothreitol, 10 mM MgCl2, 60 mM NaCl, 0.05% Nonidet p-40, 5 μg/ml oligodeoxythymidylic acid, 10 μg/ml polyriboadenylic acid, 10 μM deoxythymidine triphosphate and 1mCi [α^32 P]thymidine 5'-triphosphate. The mixture was incubated at 37° C. for 2 hours. Fifty microliters of the cocktail were then spotted onto diethylaminoethyl (DEAE) paper, dried, washed with 2×SSC solution (three times for 10 minutes each time) and 95% ethanol (two times for 5 minutes each time), dried and exposed to radiographic film for 18 to 24 hours at -80° C. The filters were cut and final quantitation was determined by scintillation spectrometry.
The data for the HIV-1 RT activity is shown in Table 1 as a percent of RT activity. Control values for RT activity ranged from 15,000 to 16,000 dpm [α^32 P] incorporated.
^c Percent inhibition of reverse-transcriptase (HIV-1 RT) activity.
Control values for HIV-1 RT activity ranged from 15000 to 16000 dpm
incorporated. The mean of duplicate determinations is shown; variance did

Turning to “Adenylyl-(2'-5')-adenylyl-(2'-5')-N^6 -benzyladenosine Bis(triethylammonium) Salt [Compound 22]”, in assay [1], the “RNase L: activation of recombinant human RNase L, percent hydrolysis of poly(U)-3'-[^32 P]pCp” value is 37.4%. In addition, the “Syn: inhibition of HIV-1 replication, HIV-1-induced syncytia formation (fold reduction)” value (from here on “Syn: inhibition … (fold reduction)”) with HIV-1 is more than 1500 fold. Besides, the “RT: percent inhibition of reverse-transcriptase (HIV-1 RT) activity” value (“RT: percent inhibition” for short) in assay [2] was determined as 33%.

On to “Adenylyl-(2'-5')-N^6 -benzyladenylyl-(2'-5')-adenosine Bis(triethylammonium) Salt [Compound 23]”, for which the “RNase L: activation of recombinant human RNase L, percent hydrolysis of poly(U)-3'-[^32 P]pCp” value in assay [1] is reported as 34.8%. Besides, in the assay on HIV-1, the “Syn: inhibition … (fold reduction)” value is more than 1500 fold. The “RT: percent inhibition” value in assay [2] is on record as 7.6%.

“Adenylyl-(2'-5')-[1-(β-D-ribofuranosyl)-1H-1,2,4-triazole-3-carboxamide]yl-(2'-5')-adenosine Bis(triethylammonium) Salt [Compound 27]”: in assay [1], the “RNase L: activation of recombinant human RNase L, percent hydrolysis of poly(U)-3'-[^32 P]pCp” value came to 9.4%. Moreover, the “Syn: inhibition … (fold reduction)” value in the assay with HIV-1 came out at 7.0 fold. The “RT: percent inhibition” value in assay [2] was found to be 99.7%.

Regarding “Adenylyl-(2'-5')-adenylyl-(2'-5')-1-(β-D-ribofuranosyl)-1H-1,2,4-triazole-3-carboxamide Bis(triethylammonium) Salt [Compound 26]”, in assay [1], the “RNase L: activation of recombinant human RNase L, percent hydrolysis of poly(U)-3'-[^32 P]pCp” value is reported as 87.7%. Moreover, the “Syn: inhibition … (fold reduction)” value with HIV-1 came to 1.6 fold. For the same substance, the “RT: percent inhibition” value in assay [2] amounted to 99.7%.

“N^6 -Benzyladenylyl-(2'-5')-adenylyl-(2'-5')-adenosine Bis(triethylammonium) Salt [Compound 24]”: the “RNase L: activation of recombinant human RNase L, percent hydrolysis of poly(U)-3'-[^32 P]pCp” value in assay [1] is 0%. The “Syn: inhibition … (fold reduction)” value in the assay on HIV-1 was more than 1500 fold. The “RT: percent inhibition” value in assay [2] is reported as 16.7%.

For “1-(β-D-Ribofuranosyl)-1H-1,2,4-triazole-3-carboxamide]yl-(2'-5')-adenylyl-(2'-5')-adenosine Bis(triethylammonium) Salt [Compound 28]”, the “RNase L: activation of recombinant human RNase L, percent hydrolysis of poly(U)-3'-[^32 P]pCp” value in assay [1] was found to be 0%. In the assay with HIV-1, the “Syn: inhibition … (fold reduction)” value is listed as 1.2 fold. The “RT: percent inhibition” value in assay [2] is 99.5%.

Turning to “N^6 -Benzyladenylyl-(2'-5')-N^6 -benzyladenylyl-(2'-5')-N^6 -benzyladenosine Bis(triethylammonium) Salt [Compound 25]”, the “RNase L: activation of recombinant human RNase L, percent hydrolysis of poly(U)-3'-[^32 P]pCp” value in assay [1] was found to be 13.6%. Besides, the “Syn: inhibition … (fold reduction)” value in the assay with HIV-1 is listed as more than 1500 fold. In addition, the “RT: percent inhibition” value in assay [2] turned out to be 10.6%.
